Tested on: d(AAGGG)4 (DNA, G4) AAGGGAAGGGAAGGGAAGGG
Experiment: UV-vis absorption titration (Soret band); CD
Conditions: 100 mM KCl; 10 mM Tris-HCl, 0.1 mM EDTA, pH 7.4; 7 μM TMPyP4; 68% hypochromicity, 16 nm red shift

With `C[n+]1ccc(-c2c3nc(c(-c4cc[n+](C)cc4)c4ccc([nH]4)c(-c4cc[n+](C)cc4)c4nc(c(-c5cc[n+](C)cc5)c5ccc2[nH]5)C=C4)C=C3)cc1` the binding was “yes”.

From paper PMC10563062 (2023)
